Consider two molecules from patent US11000495B2, “Topical diclofenac sodium compositions” (Novartis Consumer Health S.A., priority 2014, dated 2021).

Structures can show the parent of a compound that is named as a salt.

The conditions of data set [1]: cited from earlier work.
A short description of data set [2]: Solubility of diclofenac sodium 2 wt % in IPA/PG/water solvent mixtures by UV absorbance. As to conditions: 2% diclofenac sodium in IPA/PG/water, 25° C., systems shown as circles in FIG. 1. It counts as physicochemical. As for the experimental part: FIG. 1 is a ternary diagram of the solubility of diclofenac sodium, 2 wt %, at 25° C., as determined by UV absorbance, in solvent mixtures comprising isopropyl alcohol (bottom axis), propylene glycol (left axis), and water (right axis) in varying amounts. The data points represent solvent mixtures which are found to be at or above (circles), or below (squares), the target (i.e. 2%) solubility. FIG. 1 illustrates solubility studies of such solvent systems comprising 2% diclofenac sodium in isopropyl alcohol (IPA), propylene glycol (PG) and water. […] (Incomplete solubilization is represented by squares.)

As for `O=C(O)Cc1ccccc1Nc1c(Cl)cccc1Cl` [Acidic diclofenac, diclofenac], the water solubility result in data set [1] (acid form, Fini et al.) is “very low”.
For the molecule `O=C(O)Cc1ccccc1Nc1c(Cl)cccc1Cl` [diclofenac sodium, 2-[(2,6-dichloro-phenyl)amino]benzeneacetic acid, (mono) sodium salt], in data set [2], the “solubility of the salt in solvent systems” value was “Complete solubility”. Also, the kinetic solubility in data set [1] (anhydrous form, Llinas et al.) is 40 ± 5 µg/mL.
